From patent publication US9617244B2, “Antibacterial quinoline derivatives” (JANSSEN PHARMACEUTICA NV, priority 2012, dated 2017) come the findings set out here.

The structures appear in SMILES notation. Converted amounts (≈) assume the structure as drawn. Where a name gives a salt, the structure may show the parent alone.

The subject of the first data set is Mycobacterium smegmatis (ATCC607). Nature of the data set: In-vitro anti-bacterial activity against strain M. Smegmatis ATCC607. Type of data set: cell-based. The following applies: 90% inhibitory concentration for bacterial growth, 48 hours, Alamar Blue fluorescence. The essentials:
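Serial five-fold compound dilutions in BSA-supplemented wells, inoculated with ~250 CFU/well in Mueller-Hinton broth, incubated 48 h at 37 °C, 5% CO2. Growth read by Alamar Blue fluorescence (ex 530/em 590 nm); IC90 in μg/ml.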
On to `O=c1[nH]c2ccc(Br)cc2cc1C(c1ccc(Cl)cc1)C1(O)CCNC(Cc2ccc(F)cc2)C1` (stereo not drawn) [Compound 342], for which the “IC90 MSM 607” value was 3.74 µg/mL (≈ 6.73 µM).
On the same count and under the same terms, the value for `CSc1ccc2nc(O)c(C(c3ccccc3)C3(O)CCNC(c4ccc(F)cc4C)C3)cc2c1` (stereo not drawn) [Compound 183] was 3.31 µg/mL (≈ 6.77 µM).

Test system in the next data set: not given
Assay: not given
Conditions: not given
The compound `COc1nc2ccc(Br)cc2cc1C(c1cccc(Cl)c1)C1(O)CCNC(c2ccc(F)cc2C)C1` (stereo not drawn) (as salt: fumarate) [Compound 150] showed a melting point of 184 °C.
As to `O=c1[nH]c2ccc(Cl)cc2cc1C(c1ccc(Cl)cc1)C1(O)CCNCC1F` (stereo not drawn) (as salt: hydrochloride) [Compound 457], the melting point was above 250 °C.
For the compound `COc1nc2ccc(SC)cc2cc1C(c1ccc(Cl)cc1)C1(O)CCNC(CC2CCCCC2)C1` (stereo not drawn) (as salt: fumarate) [Compound 288], the melting point turned out to be 150 °C.
With `O=c1[nH]c2ccc(Br)cc2cc1C(c1ccc(Cl)cc1)C1(O)CCNC(Cc2ccc(F)cc2)C1` (stereo not drawn) (as salt: hydrochloride) [Compound 341], the melting point was above 260 °C.
In turn, `COc1nc2ccc(Br)cc2cc1C(c1cccnc1)C1(O)CCNC(Cc2ccccc2)C1` (stereo not drawn) (as salt: fumarate) [Compound 427] showed a melting point of 174 °C.
As for `O=c1[nH]c2ccc(F)cc2cc1C(c1ccc(Cl)cc1)C1(O)CCNC(Cc2ccccc2)C1` (stereo not drawn) (as salt: hydrochloride) [Compound 375], the melting point was above 250 °C.
Compound `COc1nc2ccc(S(C)(=O)=O)cc2cc1C(c1cccc(Cl)c1)C1(O)CCNC(Cc2ccc(F)cc2F)C1` (stereo not drawn) (as salt: trifluoroacetate) [Compound 325] gave a melting point of 144 °C.
In the case of `COc1nc2ccc(Br)cc2cc1C(c1ccccc1)C1(O)CCNC(Cc2ccccc2)C1` (stereo not drawn) [Compound 74], the melting point amounted to 157 °C.
Still for that read-out and setting: the value for `CSc1ccc2[nH]c(=O)c(C(c3cccc(Cl)c3)C3(O)CCNC(Cc4ccc(F)cc4F)C3)cc2c1` (stereo not drawn) (as salt: hydrochloride) [Compound 310] was 126 °C.
Still for that read-out and setting: the value for `CS(=O)(=O)c1ccc2[nH]c(=O)c(C(c3ccc(Cl)cc3)C3(O)CCNC(Cc4ccccc4)C3)cc2c1` (stereo not drawn) (as salt: fumarate) [Compound 119] was 215 °C.
Still for that read-out and setting: the value for `COc1nc2ccc(SC)cc2cc1C(c1cccc(Cl)c1)C1(O)CCNC(Cc2ccc(F)cc2F)C1` (stereo not drawn) (as salt: trifluoroacetate) [Compound 50] was 208 °C; that for `CSc1ccc(C(c2cc3cc(Cl)ccc3[nH]c2=O)C2(O)CCNC(c3ccc(F)cc3C)C2)cc1` (stereo not drawn) (as salt: hydrochloride) [Compound 349] was above 250 °C; that for `COc1nc2ccc(Br)cc2cc1C(c1ccc(Cl)cc1)C1(O)CCNC(Cc2ccc(F)cc2F)C1` (stereo not drawn) (as salt: trifluoroacetate) [Compound 313] was 147 °C.
In turn, `O=c1[nH]c2ccc(Br)cc2cc1C(c1ccc(Cl)cc1)C1(O)CCNC(Cc2ccc(F)cc2F)C1` (stereo not drawn) (as salt: hydrochloride) [Compound 315] returned a melting point above 260 °C.
The compound `CS(=O)(=O)c1ccc2[nH]c(=O)c(C(c3cccc(Cl)c3)C3(O)CCNC(Cc4ccc(F)cc4F)C3)cc2c1` (stereo not drawn) (as salt: hydrochloride) [Compound 308] showed a melting point above 260 °C.
Compound `COc1nc2ccc(F)cc2cc1C(c1ccc(Cl)cc1)C1(O)CCNC(c2ccc(F)cc2C)C1` (stereo not drawn) (as salt: fumarate) [Compound 330] registered a melting point of 170 °C.
Compound `O=c1[nH]c2ccc(Br)cc2cc1C(c1ccc(Cl)cc1)C1(O)CCNC(Cc2ccc(F)c(F)c2)C1` (stereo not drawn) (as salt: hydrochloride) [Compound 134] showed a melting point of 233 °C.
Still for that read-out and setting: the value for `COc1nc2ccc(Br)cc2cc1C(c1cccc(Cl)c1)C1(O)CCNC(c2ccc(F)cc2C)C1` (stereo not drawn) (as salt: fumarate) [Compound 151] was 156 °C; that for `COc1nc2ccccc2cc1C(c1ccccc1)C1(O)CCNC(c2ccc(F)cc2C)C1` (stereo not drawn) (as salt: fumaric acid salt) [Compound 16] was 166 to 168 °C.
`COc1nc2ccc(S(C)(=O)=O)cc2cc1C(c1ccc(Cl)cc1)C1(O)CCNC(Cc2ccc(F)cc2F)C1` (stereo not drawn) (as salt: trifluoroacetate) [Compound 305] came in with a melting point of 133 °C.
In turn, `O=c1[nH]c2ccc(Cl)cc2cc1C(c1ccc(Cl)cc1)C1(O)CCNC(Cc2ccccc2)C1` (stereo not drawn) (as salt: hydrochloride) [Compound 239] gave a melting point above 250 °C.
In the case of `COc1nc2ccc(Cl)cc2cc1C(c1ccc(Cl)cc1)C1(O)CCNC(Cc2ccccc2)C1` (stereo not drawn) (as salt: fumarate) [Compound 94], the melting point came to 168 °C.
For the compound `COc1nc2ccccc2cc1C(c1ccccc1)C1(O)CCNC(c2ccccc2)C1` (stereo not drawn) (as salt: fumarate) [Compound 413], the melting point is above 250 °C.
For the compound `O=c1[nH]c2ccc(Br)cc2cc1C(c1ccc(Cl)cc1)C1(O)CCNC(Cc2ccc(F)c(F)c2)C1` (stereo not drawn) (as salt: hydrochloride) [Compound 126], the melting point is above 260 °C.
With `Cc1cc(F)ccc1C1CC(O)(C(c2cccc(Cl)c2)c2cc3cc(S(C)(=O)=O)ccc3[nH]c2=O)CCN1` (stereo not drawn) (as salt: hydrochloride) [Compound 159], the melting point was above 250 °C.
For `COc1nc2ccc(SC)cc2cc1C(c1ccc(Cl)cc1)C1(O)CCNCC1Cc1cccc(F)c1` (stereo not drawn) (as salt: fumarate) [Compound 284], the melting point stood at 163 °C.
Turning to `COc1nc2ccc(S(C)(=O)=O)cc2cc1C(c1ccc(Cl)cc1)C1(O)CCNC(c2ccc(F)cc2C)C1` (stereo not drawn) (as salt: fumarate) [Compound 201], the melting point is 195 °C.
Consider `COc1nc2ccc(Cl)cc2cc1C(c1ccc(Cl)cc1)C1(O)CCNC(c2ccccc2)C1` (stereo not drawn) (as salt: fumarate) [Compound 404], for which the melting point came to 168 °C.
Compound `COc1nc2ccc(Cl)cc2cc1C(c1ccc(SC)cc1)C1(O)CCNC(c2ccc(F)cc2C)C1` (stereo not drawn) (as salt: fumarate) [Compound 354] yielded a melting point of 168 to 170 °C.
Compound `CC1CC(O)(C(c2ccc(Cl)cc2)c2cc3cc(Br)ccc3[nH]c2=O)CCN1` (stereo not drawn) (as salt: hydrochloride) [Compound 129] had a melting point of 240 °C.
The same measure, in the same setting: the value for `COc1ccc2nc(OC)c(C(c3ccccc3)C3(O)CCNC(Cc4ccccc4)C3)cc2c1` (stereo not drawn) (as salt: fumarate) [Compound 408] was 135 °C.
Turning to `COc1nc2ccccc2cc1C(c1ccccc1)C1(O)CCNC(Cc2ccccc2)C1` (stereo not drawn) (as salt: fumarate) [Compound 402], the melting point is 175 to 177 °C.
Same read-out and setting: the value for `COc1nc2ccccc2cc1C(c1ccccc1)C1(O)CCNC(c2ccccc2)C1` (stereo not drawn) (as salt: fumarate) [Compound 414] was 196 °C; that for `COc1nc2ccc(Cl)cc2cc1C(c1ccc(Cl)cc1)C1(O)CCNC(c2ccc3ccccc3c2)C1` (stereo not drawn) (as salt: fumarate) [Compound 432] was 167 °C.
The same measure, in the same setting: the value for `COc1nc2ccc(F)cc2cc1C(c1ccc(Cl)cc1)C1(O)CCNC(Cc2ccccc2)C1` (stereo not drawn) (as salt: fumarate) [Compound 55] was 120 °C; that for `COc1nc2ccccc2cc1C(c1ccccc1)C1(O)CCNC(Cc2ccccc2)C1` (stereo not drawn) (as salt: fumarate) [Compound 401] was 240 °C; that for `CS(=O)(=O)c1ccc2[nH]c(=O)c(C(c3ccc(Cl)cc3)C3(O)CCNC(Cc4ccc(F)c(F)c4)C3)cc2c1` (stereo not drawn) (as salt: fumarate) [Compound 214] was 213 °C.
On to `O=c1[nH]c2ccc(Br)cc2cc1C(c1ccc(Cl)cc1)C1(O)CCNC(Cc2ccc(F)cc2F)C1` (stereo not drawn) (as salt: hydrochloride) [Compound 314], for which the melting point is 234 °C.
As for `COc1nc2ccc(Br)cc2cc1C(c1ccc(Cl)cc1)C1(O)CCNC(C)C1` (stereo not drawn) [Compound 123], the melting point is 210 °C.
For `COc1nc2ccc(SC)cc2cc1C(c1ccccc1)C1(O)CCNC(Cc2ccccc2)C1` (stereo not drawn) (as salt: fumarate) [Compound 141], the melting point is 155 °C.
`CS(=O)(=O)c1ccc2[nH]c(=O)c(C(c3ccc(Cl)cc3)C3(O)CCN[C@@H](Cc4ccc(F)c(F)c4)C3)cc2c1` (stereo in doubt) (as salt: hydrochloride) [Compound 206] yielded a melting point of 245 °C.
Compound `COc1nc2ccc(Cl)cc2cc1C(c1ccc(Cl)cc1)C1(O)CCNC(Cc2ccc(F)cc2)C1` (stereo not drawn) (as salt: fumarate) [Compound 348] returned a melting point of 145 °C.
Same read-out and setting: the value for `CS(=O)(=O)c1ccc2[nH]c(=O)c(C(c3cccc(Cl)c3)C3(O)CCNC(Cc4ccc(F)cc4F)C3)cc2c1` (stereo not drawn) (as salt: hydrochloride) [Compound 327] was 248 °C; that for `CCCN(C)CC1CC(O)(C(c2ccc(Cl)cc2)c2cc3cc(Cl)ccc3nc2OC)CCN1` (stereo not drawn) (as salt: fumarate) [Compound 64] was 141 °C.
For the compound `COc1nc2ccccc2cc1C(c1ccccc1)C1(O)CCNC(c2ccc(F)cc2C)C1` (stereo not drawn) (as salt: fumarate) [Compound 416], the melting point lay in the range of 160 to 162 °C.
`O=c1[nH]c2ccc(Br)cc2cc1C(c1ccc(Cl)cc1)C1(O)CCNCC1Cc1cccc(F)c1` (stereo not drawn) (as salt: hydrochloride) [Compound 229]: the melting point was above 250 °C.
Take `COc1nc2ccc(SC)cc2cc1C(c1cccc(Cl)c1)C1(O)CCNC(c2ccc(F)cc2C)C1` (stereo not drawn) (as salt: fumarate) [Compound 165]: the melting point turned out to be 168 °C.

A further data set concerns Staphylococcus aureus (ATCC29213). As to the kind of experiment: In-vitro anti-bacterial activity, microtitre plate assay, IC90 determination (non-mycobacterial strains). In kind it is cell-based. The following applies: 90% inhibitory concentration for bacterial growth, 24 hours, resazurin fluorescence. The essentials:
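Inoculum of about 100 TCID50 (10–60 CFU/well) in Mueller-Hinton broth, serial five-fold compound dilutions, 24 h at 37 °C in air. Growth read by resazurin fluorescence (ex 530/em 590 nm); IC90 in μg/ml as 90% growth inhibition.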
As to `O=c1[nH]c2ccc(Br)cc2cc1C(c1ccc(Cl)cc1)C1(O)CCNC(Cc2ccc(F)cc2)C1` (stereo not drawn) [Compound 342], the “IC90 STA B29213” value is 7.46 µg/mL (≈ 13.4 µM).
Same read-out and setting: the value for `CSc1ccc2nc(O)c(C(c3ccccc3)C3(O)CCNC(c4ccc(F)cc4C)C3)cc2c1` (stereo not drawn) [Compound 183] was 3.31 µg/mL (≈ 6.77 µM).
